In article PMC13385394, “Cryo-EM Structure of the TRPC1/5 Heteromer Enables Design of Antidepressant and Anxiolytic Drug with Reduced Side Effects” (Nature Communications, 2026):
pIC50: −log10 of the molar value.

What was measured:
Assay type in all cases: cell-based
TRPC1/5 heteromers [1] = target: T1, TRPC1/5 heteromers (Homo sapiens, UniProt P48995+Q9UL62); experiment: Whole-cell patch-clamp, agonist activation of TRPC1/5 (TRPC1 and TRPC5 co-transfected) in HEK293T cells
T1 construct: wild type plasmids full-length hTRPC1 (WT) and full-length hTRPC5 (WT); expressed in transfected cells; host or cells: HEK293T
From the text: (§1) The full-length hTRPC5 or truncated mTRPC5, and the full-length hTRPC1 constructs was respectively co-transfected in a plasmid ration 1:3 (w/w) into HEK293T cells (from the ATCC). As previously described, a mCherry was inserted into TRPC5 constructs and a GFP was inserted at the C terminus of TRPC1. Therefore, Cells with red and green fluorescence were selected for whole-cell patch recordings (HEKA EPC10 amplifier, […] software (https://www.heka.com/downloads/downloads_main.html#down_patchmaster)). A 1-s ramp protocol from −100 to +100 mV was applied at a frequency of 0.2 Hz. Signals were sampled at 50 kHz and filtered at 2.9 kHz. The pipette solution contained 130 mM CsCl, 1 mM MgCl2, 5.7 mM CaCl2, 10 mM EGTA, and 10 mM Hepes (calculated free Ca^2+, 200 nM), and the pH was titrated to 7.2 using CsOH[40]. The standard bath solution contained 140 mM NaCl, 5 mM KCl, 1 mM MgCl2, 2 mM CaCl2, 10 mM Hepes, and 10 mM D-glucose, and the pH was adjusted to 7.4 with NaOH (1 M). The recording chamber (150 μL) was perfused at a rate of ~2 mL/min. All recordings were performed at room temperature.

TRPC5 homomers [2] = target: T2, TRPC5 homomers (Homo sapiens, UniProt Q9UL62); experiment: Whole-cell patch-clamp, agonist activation of TRPC5 homomers in HEK293T cells
T2 construct: full length hTRPC5 (TRPC5 wild type (WT)); expressed in transfected cells; host or cells: HEK293T
T2 sequence (Q9UL62 1-973): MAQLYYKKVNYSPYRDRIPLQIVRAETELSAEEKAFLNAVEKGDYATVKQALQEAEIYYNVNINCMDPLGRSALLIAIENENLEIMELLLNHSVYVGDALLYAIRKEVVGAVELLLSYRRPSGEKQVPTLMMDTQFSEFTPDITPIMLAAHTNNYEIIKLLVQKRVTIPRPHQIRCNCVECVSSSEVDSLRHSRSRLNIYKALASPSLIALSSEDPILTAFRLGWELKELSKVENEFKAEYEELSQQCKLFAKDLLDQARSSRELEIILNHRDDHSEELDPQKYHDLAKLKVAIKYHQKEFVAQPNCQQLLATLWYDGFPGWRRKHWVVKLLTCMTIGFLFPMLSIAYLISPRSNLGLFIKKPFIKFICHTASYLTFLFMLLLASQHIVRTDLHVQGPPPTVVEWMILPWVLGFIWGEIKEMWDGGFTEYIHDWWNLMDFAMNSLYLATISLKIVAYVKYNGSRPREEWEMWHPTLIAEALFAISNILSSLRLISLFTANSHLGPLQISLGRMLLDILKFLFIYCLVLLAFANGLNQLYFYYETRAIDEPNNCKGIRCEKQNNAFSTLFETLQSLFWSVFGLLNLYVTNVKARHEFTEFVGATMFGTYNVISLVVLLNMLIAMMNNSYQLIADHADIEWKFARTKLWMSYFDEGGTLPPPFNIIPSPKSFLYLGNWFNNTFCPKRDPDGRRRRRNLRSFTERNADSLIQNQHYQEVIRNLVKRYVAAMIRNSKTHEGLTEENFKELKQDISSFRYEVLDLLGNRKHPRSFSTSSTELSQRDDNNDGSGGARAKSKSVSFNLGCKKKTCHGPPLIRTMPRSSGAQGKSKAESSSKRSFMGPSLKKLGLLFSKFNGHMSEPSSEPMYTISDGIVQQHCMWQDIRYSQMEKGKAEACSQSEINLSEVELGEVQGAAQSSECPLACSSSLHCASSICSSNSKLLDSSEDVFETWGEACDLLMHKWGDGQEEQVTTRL

TRPC1/5 = target: T3, TRPC1/5 (Homo sapiens, UniProt P48995+Q9UL62); experiment: Calcium flux assay (Calcium 5 kit, EA 100 nM), hTRPC1 + hTRPC5 in HEK293T cells; details: calcium flux screening, 10 μM
T3 construct: Full-length, non-tagged hTRPC1 and hTRPC5 constructs are used for calcium flux assays; expressed in transfected cells; host or cells: HEK293T
Method: Full-length, non-tagged hTRPC1 and hTRPC5 constructs are used for calcium flux assays. hTRPC5 is transfected alone or co-transfected with hTRPC1 into HEK293T cells (70–80% confluency) using PEI as the transfection reagent.
The culture medium is removed, and 100 µL of loading buffer (Calcium 5 Assay Kit) is added to each well, followed by a 1-h incubation at 37 °C in 5% CO2. Five minutes before measurement, molecules are added to each well at a final concentration of 10 µM under light-sensitive conditions.

hTRPC5 = target: T4, hTRPC5 (Homo sapiens, UniProt Q9UL62); experiment: Calcium flux assay (Calcium 5 kit, EA 100 nM), hTRPC5 in HEK293T cells; details: calcium flux screening, 10 μM
T4 construct: Full-length, non-tagged hTRPC1 and hTRPC5 constructs are used for calcium flux assays; expressed in transfected cells; host or cells: HEK293T
T4 sequence (Q9UL62 1-973): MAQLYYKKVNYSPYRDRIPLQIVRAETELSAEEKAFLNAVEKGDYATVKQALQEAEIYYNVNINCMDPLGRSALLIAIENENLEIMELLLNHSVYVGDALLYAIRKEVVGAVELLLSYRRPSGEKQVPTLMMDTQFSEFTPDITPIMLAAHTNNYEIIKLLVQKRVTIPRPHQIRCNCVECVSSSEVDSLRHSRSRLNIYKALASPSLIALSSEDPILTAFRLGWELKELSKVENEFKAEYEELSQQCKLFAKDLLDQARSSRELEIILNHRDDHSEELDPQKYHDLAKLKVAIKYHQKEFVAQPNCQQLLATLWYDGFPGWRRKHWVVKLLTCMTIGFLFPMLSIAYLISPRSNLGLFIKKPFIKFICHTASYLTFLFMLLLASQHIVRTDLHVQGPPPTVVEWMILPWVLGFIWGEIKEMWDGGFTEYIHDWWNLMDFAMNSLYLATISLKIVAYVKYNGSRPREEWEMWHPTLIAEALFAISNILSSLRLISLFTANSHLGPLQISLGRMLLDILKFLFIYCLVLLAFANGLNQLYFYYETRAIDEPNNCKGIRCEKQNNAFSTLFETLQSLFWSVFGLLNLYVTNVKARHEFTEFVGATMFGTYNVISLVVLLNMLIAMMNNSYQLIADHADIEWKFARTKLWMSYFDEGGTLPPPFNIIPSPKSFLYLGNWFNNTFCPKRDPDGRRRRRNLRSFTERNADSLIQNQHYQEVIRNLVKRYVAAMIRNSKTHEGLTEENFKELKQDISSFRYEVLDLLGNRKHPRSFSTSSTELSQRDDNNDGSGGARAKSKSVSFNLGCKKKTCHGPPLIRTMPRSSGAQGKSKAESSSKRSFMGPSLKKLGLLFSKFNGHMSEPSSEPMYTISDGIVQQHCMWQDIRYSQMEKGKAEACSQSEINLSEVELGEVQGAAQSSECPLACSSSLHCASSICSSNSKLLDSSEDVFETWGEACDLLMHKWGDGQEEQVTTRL
Method: Five minutes before measurement, molecules are added to each well at a final concentration of 10 µM under light-sensitive conditions.

TRPC1/5 heteromers [3] = target: T1, TRPC1/5 heteromers; experiment: Whole-cell patch-clamp, inhibition of EA-activated TRPC1/5 heteromers; details: whole-cell patch-clamp; read-out: IC50, TRPC1/C5
From the text: as §1

TRPC5 homomers [4] = target: T2, TRPC5 homomers; experiment: Whole-cell patch-clamp, inhibition of EA-activated TRPC5 homomers; details: whole-cell patch-clamp

T1 sequence (P48995 whole entry, one chain of several): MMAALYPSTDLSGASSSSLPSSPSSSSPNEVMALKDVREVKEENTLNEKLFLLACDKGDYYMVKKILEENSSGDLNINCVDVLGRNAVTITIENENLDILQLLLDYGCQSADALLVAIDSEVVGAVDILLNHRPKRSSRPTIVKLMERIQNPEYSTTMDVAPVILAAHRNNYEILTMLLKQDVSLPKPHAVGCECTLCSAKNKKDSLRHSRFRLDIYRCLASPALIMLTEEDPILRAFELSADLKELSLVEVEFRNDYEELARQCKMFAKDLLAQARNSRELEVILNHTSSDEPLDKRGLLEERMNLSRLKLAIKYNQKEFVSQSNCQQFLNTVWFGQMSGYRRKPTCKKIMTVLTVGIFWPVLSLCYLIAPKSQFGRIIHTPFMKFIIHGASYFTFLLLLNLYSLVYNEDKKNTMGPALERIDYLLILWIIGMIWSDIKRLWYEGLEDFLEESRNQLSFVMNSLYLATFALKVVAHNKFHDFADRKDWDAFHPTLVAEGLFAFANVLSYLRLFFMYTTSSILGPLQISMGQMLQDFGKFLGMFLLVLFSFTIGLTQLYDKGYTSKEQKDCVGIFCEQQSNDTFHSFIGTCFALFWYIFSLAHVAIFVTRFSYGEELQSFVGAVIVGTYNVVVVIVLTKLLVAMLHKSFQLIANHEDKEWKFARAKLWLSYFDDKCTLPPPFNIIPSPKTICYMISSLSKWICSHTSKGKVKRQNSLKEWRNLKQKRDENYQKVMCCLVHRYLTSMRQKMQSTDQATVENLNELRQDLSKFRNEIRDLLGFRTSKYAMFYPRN
T3 sequence (P48995 whole entry, one chain of several): as above

Structure (SMILES) | inhibition of TRPC1/5 heteromers (in words) (TRPC1/5) | inhibitory activity toward TRPC5 homomers (in words) (hTRPC5) | also measured
Cn1c(=O)n(CCCO)c(=O)c2c1nc(Oc1ccc(Cl)c(OC(F)(F)F)c1)n2Cc1ccc(Cl)cc1 [AM237] | – | – | activation of TRPC1/5 heteromers (in words) (TRPC1/5 heteromers [1]): not TRPC1/5 heteromers; activation of TRPC5 homomers (in words) (TRPC5 homomers [2]): activates TRPC5 homomers
Cn1c(=O)n(CCN2CCCC2)c(=O)c2c1nc(Oc1cccc(Cl)c1)n2Cc1ccc(Cl)cc1 [H01] | moderate inhibition | markedly reduced inhibitory activity | –
CC(C)NCCn1c(=O)c2c(nc(Oc3cccc(Cl)c3)n2Cc2ccc(Cl)cc2)n(C)c1=O [H02] | moderate inhibition | markedly reduced inhibitory activity | –
Cn1c(=O)n(CCNCc2ccccc2)c(=O)c2c1nc(Oc1cccc(Cl)c1)n2Cc1ccc(Cl)cc1 [H03] | – | restored TRPC5 homomer inhibition | –
CN(C)CCCCCCn1c(=O)c2c(nc(Oc3cccc(Cl)c3)n2Cc2ccc(Cl)cc2)n(C)c1=O [H10] | – | – | pIC50 (TRPC1/5 heteromers [3]): 8.59; HillSlope, TRPC5 (TRPC5 homomers [4]): 0.3841; pIC50 (TRPC5 homomers [4]): 6.30
